The values below come from patent US9453014B2, “Cyclic amide derivatives as inhibitors of 11-β-hydroxysteroid dehydrogenase and uses thereof” (CONNEXIOS LIFE SCIENCES PVT. LTD., priority 2011, dated 2016).

As usually defined, the IC50 is the concentration that inhibits the measured activity by half.

Some results are limits rather than exact numbers.

For the test, the target named is T1, human full length HSD11 β 1 (Homo sapiens, UniProt P28845).
T1 construct: transient expression of human full length HSD11 β 1 expression vector; host or cells: CHO cells (transient transfection)
T1 sequence (P28845 whole entry): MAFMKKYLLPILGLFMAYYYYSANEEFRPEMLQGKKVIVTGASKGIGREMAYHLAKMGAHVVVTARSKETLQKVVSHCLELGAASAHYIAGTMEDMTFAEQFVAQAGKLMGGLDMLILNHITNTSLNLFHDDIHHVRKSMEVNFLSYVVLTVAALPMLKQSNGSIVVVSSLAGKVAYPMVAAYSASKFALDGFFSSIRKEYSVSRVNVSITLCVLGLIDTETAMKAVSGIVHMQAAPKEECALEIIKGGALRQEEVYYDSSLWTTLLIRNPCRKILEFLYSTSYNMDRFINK
As to the kind of experiment: In Vitro HSD11β1 Inhibition Assay. To be noted: CHO cells transiently expressing human HSD11β1; 200 nM cortisone+500 uM NADPH overnight; cortisone to cortisol by LC/MS-MS; read-out: 11βHSD1 (IC50). The test is classed as cell-based. The method, boiled down:
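CHO cells transiently transfected with human full-length HSD11β1 were re-seeded after 24 h and, 24 h later, incubated overnight with 200 nM cortisone plus 500 uM NADPH and inhibitor. Cortisone-to-cortisol conversion was measured by LC/MS-MS. IC50 from an 8-point log concentration–inhibition curve.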
Turning to `CC(CC(=O)N1CCCC2C(C(=O)O)CCCC21)c1c[nH]c2cccc(-c3ccc(F)cc3)c12` (single isomer, unassigned) [Compound 256, 1-{3-[4-(4-fluorophenyl)-1H-indol-3-yl]butanoyl}decahydroquinoline-5-carboxylic acid], the IC50 was > 250 nM.

As for `Cc1cccc2[nH]cc(CCC(=O)N3CCCC4CCCCC43)c12` (stereo not shown) [Compound 20, 3-(4-methyl-1H-indol-3-yl)-1-(octahydroquinolin-1(2H)-yl)propan-1-one], the IC50 is < 100 nM.

As to `CC(CC(=O)N1CCCC2C1CCCC2(C)C(=O)O)c1c[nH]c2cccc(C3CC3)c12` (stereo not shown) [Compound 237, 1-[3-(4-cyclopropyl-1H-indol-3-yl)butanoyl]-5-methyldecahydroquinoline-5-carboxylic acid], the IC50 lay in the range of 150 to 200 nM.

Consider `O=C(CCCc1c[nH]c2ccccc12)N1CCCC2CCCCC21` (stereo not shown) [Compound 11, 4-(1H-indol-3-yl)-1-(octahydroquinolin-1(2H)-yl)butan-1-one], for which the IC50 fell in the range of 100 to 150 nM.

As for `O=C(O)C1CCN(C(=O)CC(c2ccccc2)c2c[nH]c3cccc(F)c23)C2CCCCC12` (single isomer, unassigned) [Example 161, 1-[3-(4-fluoro-1H-indol-3-yl)-3-phenylpropanoyl]decahydroquinoline-4-carboxylic acid], the IC50 is < 100 nM.

`CC(CC(=O)N1CCCC2C(C(=O)O)CCCC21)c1c[nH]c2cccc(-c3ccc(F)o3)c12` (single isomer, unassigned) [Compound 250, 1-{3-[4-(5-fluorofuran-2-yl)-1H-indol-3-yl]butanoyl}decahydroquinoline-5-carboxylic acid]: the IC50 was < 100 nM.

For `CC1CCC2CCCCC2N1C(=O)CCc1nc2ccccc2s1` (stereo not shown) [Example 76, 3-(1,3-benzothiazol-2-yl)-1-(2-methyloctahydroquinolin-1 (2H)-yl)propan-1-one], the IC50 was > 250 nM.

`CC(C)C(CC(=O)N1CCC(C(=O)O)C2CCCCC21)c1c[nH]c2cc(F)ccc12` (single isomer, unassigned) [Example 178, 1-[3-(6-fluoro-1H-indol-3-yl)-4-methylpentanoyl]decahydroquinoline-4-carboxylic acid]: the IC50 was > 250 nM.

For `O=C(CC(=O)N1CCCC2CCCCC21)c1c[nH]c2ccc(Cl)cc12` (stereo not shown) [Compound 19, 1-(5-chloro-1H-indol-3-yl)-3-(octahydroquinolin-1(2H)-yl)propane-1,3-dione], the IC50 was > 250 nM.

`CC(C)C(CC(=O)N1CCCC2CCCCC21)c1c[nH]c2cccc(F)c12` (stereo not shown) [Example 111, 3-(4-fluoro-1H-indol-3-yl)-4-methyl-1-(octahydroquinolin-1(2H)-yl)pentan-1-one]: the IC50 was < 100 nM.

In the case of `CC(CC(=O)N1CCCC2CCCCC21)c1c[nH]c2ncccc12` (stereo not shown) [Example 143, 1-(octahydroquinolin-1(2H)-yl)-3-(1H-pyrrolo[2,3-b]pyridin-3-yl)butan-1-one], the IC50 is < 100 nM.

In the case of `O=C(O)C1CCCC2C1CCCN2C(=O)CC(c1cccs1)c1c[nH]c2cccc(Cl)c12` (single isomer, unassigned) [Compound 219, 1-[3-(4-chloro-1H-indol-3-yl)-3-(thiophen-2-yl)propanoyl]decahydroquinoline-5-carboxylic acid], the 50% inhibitory concentration (IC50) was > 250 nM.

For the compound `CC(CC(=O)N1CCCC2C(C(=O)O)CCCC21)c1c[nH]c2cccc(C3CC3)c12` (single isomer, unassigned) [Compound 196, 1-[3-(4-cyclopropyl-1H-indol-3-yl)butanoyl]decahydroquinoline-5-carboxylic acid], the IC50 was < 100 nM.

For the compound `CC(CC(=O)N1CCCC2C(C(=O)O)CCCC21)c1cn(C)c2cccc(Cl)c12` (stereo not shown) [Compound 209, 1-[3-(4-chloro-1-methyl-1H-indol-3-yl)butanoyl]decahydroquinoline-5-carboxylic acid], the IC50 was 150 to 200 nM.

For `O=C(CCc1c[nH]c2ccc(Cl)cc12)N1CCCC2CCCCC21` (stereo not shown) [Compound 6, 3-(5-chloro-1H-indol-3-yl)-1-(octahydroquinolin-1(2H)-yl)propan-1-one], the IC50 was in the range of 200 to 250 nM.

Regarding `Cc1cccc2[nH]cc(C(C)CC(=O)N3CCCC4(C#N)CCCCC34)c12` (stereo not shown) [Example 149, 1-[3-(4-methyl-1H-indol-3-yl)butanoyl]octahydroquinoline-4a(2H)-carbonitrile], the IC50 was > 250 nM.

In the case of `O=C(CCc1nc2ccccc2s1)N1CCC2CCCCC21` (stereo not shown) [Example 81, 3-(1,3-benzothiazol-2-yl)-1-(octahydro-1H-indol-1-yl)propan-1-one], the IC50 was < 100 nM.

As for `CC(CC(=O)N1CCCC2C(C(=O)O)CCCC21)c1c[nH]c2cccc(-c3cccs3)c12` (stereo not shown) [Compound 192, 1-{3-[4-(thiophen-2-yl)-1H-indol-3-yl]butanoyl}decahydroquinoline-5-carboxylic acid], the IC50 was < 100 nM.

Take `CC(CC(=O)N1CCCC2CCCCC21)c1c[nH]c2cccc(-c3ccc(C(=O)O)o3)c12` (stereo not shown) [Compound 246, 5-{3-[4-(octahydroquinolin-1(2H)-yl)-4-oxobutan-2-yl]-1H-indol-4-yl}furan-2-carboxylic acid]: the half-maximal inhibitory concentration (IC50) was > 250 nM.

For `CC(C)C(CC(=O)N1CCCC2(C)CCCCC12)c1c[nH]c2cccc(F)c12` (stereo not shown) [Example 112, 3-(4-fluoro-1H-indol-3-yl)-4-methyl-1-(4a-methyloctahydroquinolin-1(2H)-yl)pentan-1-one], the IC50 is < 100 nM.

`Cc1cccc2nn(C(C)CC(=O)N3CCC(C(=O)O)C4CCCCC43)nc12` (stereo not shown) [Example 169, 1-[3-(4-methyl-2H-benzotriazol-2-yl)butanoyl]decahydroquinoline-4-carboxylic acid]: the IC50 was > 250 nM.

For the compound `CC(CC(=O)N1CCCC2CCCCC21)c1c[nH]c2ccccc12` (single isomer, unassigned) [Example 124, 3-(1H-indol-3-yl)-1-(octahydroquinolin-1(2H)-yl)butan-1-one], the IC50 was 100 to 150 nM.

Regarding `Cn1nc(CCC(=O)N2CCCC3CCCCC32)c2ccccc21` (stereo not shown) [Example 89, 3-(1-methyl-1H-indazol-3-yl)-1-(octahydroquinolin-1(2H)-yl)propan-1-one], the IC50 was 150 to 200 nM.

On to `O=C(O)C1CCN(C(=O)CC(c2ccc(F)cc2)c2c[nH]c3cccc(F)c23)C2CCCCC12` (stereo not shown) [Example 157, 1-[3-(4-fluoro-1H-indol-3-yl)-3-(4-fluorophenyl)propanoyl]decahydroquinoline-4-carboxylic acid], for which the IC50 is < 100 nM.

As for `O=C(CCn1nnc2ccccc21)N1CCOC2CCCCC21` (stereo not shown) [Example 91, 3-(1H-benzotriazol-1-yl)-1-(octahydro-4H-1,4-benzoxazin-4-yl)propan-1-one], the IC50 is > 250 nM.

For `CC(CC(=O)N1CCOC2CCCCC21)c1c[nH]c2cccc(F)c12` (single isomer, unassigned) [Example 137, 3-(4-fluoro-1H-indol-3-yl)-1-(octahydro-4H-1,4-benzoxazin-4-yl)butan-1-one], the IC50 lay in the range of 100 to 150 nM.

In the case of `CC(CC(=O)N1CCCC2C(C(=O)O)CCCC21)c1cn(C)c2cccc(C3CC3)c12` (single isomer, unassigned) [Compound 213, 1-[3-(4-cyclopropyl-1-methyl-1H-indol-3-yl)butanoyl]decahydroquinoline-5-carboxylic acid], the IC50 is > 250 nM.

As for `CC(CC(=O)N1C(C)CCC2C(C(=O)O)CCCC21)c1c[nH]c2cccc(-c3ccco3)c12` (stereo not shown) [Compound 231, 1-{3-[4-(furan-2-yl)-1H-indol-3-yl]butanoyl}-2-methyldecahydroquinoline-5-carboxylic acid], the IC50 lay within 150 to 200 nM.

For the compound `Cn1cc(C2CC2C(=O)N2CCCC3CCCCC32)c2ccccc21` (stereo not shown) [Example 97, [2-(1-methyl-1H-indol-3-yl)cyclopropyl](octahydroquinolin-1(2H)-yl)methanone], the IC50 was in the range of 150 to 200 nM.

Turning to `O=C(O)C1CCN(C(=O)CCc2c[nH]c3ccccc23)C2CCCCC12` (stereo not shown) [Compound 50, 1-[3-(1H-indol-3-yl)propanoyl]decahydroquinoline-4-carboxylic acid], the IC50 is > 250 nM.

On to `O=C(/C=C/c1c[nH]c2ccccc12)N1CCCC2CCCCC21` (stereo not shown) [Compound 8, (2E)-3-(1H-indol-3-yl)-1-(octahydroquinolin-1(2H)-yl)prop-2-en-1-one], for which the IC50 lay in the range of 100 to 150 nM.

With `O=C(O)C1CCCC2C1CCCN2C(=O)CC(O)(c1c[nH]c2ccccc12)C(F)(F)F` (stereo not shown) [Compound 265, 1-[4,4,4-trifluoro-3-hydroxy-3-(1H-Indol-3-yl)butanoyl]-decahydroquinoline-5-carboxylic acid], the IC50 was > 250 nM.

As to `CC(CC(=O)N1CCCC2(O)CCCCC12)c1c[nH]c2ncccc12` (stereo not shown) [Example 148, 1-(4a-hydroxyoctahydroquinolin-1(2H)-yl)-3-(1H-pyrrolo[2,3-b]pyridin-3-yl)butan-1-one], the IC50 is > 250 nM.

In the case of `CC(C)C(CC(=O)N1CCC(C(=O)O)C2CCCCC21)c1c[nH]c2cc(F)ccc12` (single isomer, unassigned) [Example 177, 1-[3-(6-fluoro-1H-indol-3-yl)-4-methylpentanoyl]decahydroquinoline-4-carboxylic acid], the IC50 is 150 to 200 nM.

`O=C(CCc1nc2ccccc2s1)N1CCOC2CCCCC21` (stereo not shown) [Example 80, 3-(1,3-benzothiazol-2-yl)-1-(octahydro-4H-1,4-benzoxazin-4-yl)propan-1-one]: the half-inhibitory concentration (IC50) is > 250 nM.

Take `O=C(CS(=O)(=O)c1c[nH]c2ccccc12)N1CCCC2CCCCC21` (stereo not shown) [Compound 57, 2-(1H-indol-3-ylsulfonyl)-1-(octahydroquinolin-1(2H)-yl)ethanone]: the IC50 was > 250 nM.

Regarding `O=C(O)C1CC2CCCCC2N(C(=O)CC(c2ccccc2)c2c[nH]c3cc(F)ccc23)C1` (stereo not shown) [Example 175, 1-[3-(6-fluoro-1H-indol-3-yl)-3-phenylpropanoyl]decahydroquinoline-3-carboxylic acid], the IC50 was > 250 nM.
